Assay results reported in ChEMBL document CHEMBL3244029, “Synthesis and stereospecific antipsychotic activity of (-)-1-cyclopropylmethyl-4-(3-trifluoromethylthio-5H-dibenzo[a,d]cyclohepten-5-ylidene)piperidine” (J Med Chem, 1977).
Where “and” joins values, the source holds several entries; their conditions need not be identical. Identical values can stand only once. Calls of active or inactive are those of the source. No cut-off for these calls is given here.

Assays:
Mus musculus [1] = test: Central anticholinergic activity against physostigmine-induced lethality in Carworth CF1 mouse assessed as animal death at 10 mg/kg, po treated 5 hrs before 1.6 mg/kg, sc physostigmine treatment and 2 mg/kg, ip atropine methyl nitrate treated 0.5 hrs before induction (reference value: 0%); format: functional
Mus musculus [2] = test: Peripheral anticholinergic activity in po dosed Carworth CF1 mouse assessed as dose required to produce pupil dilation to 1.5 micrometer units in 50% mouse after 2 hrs; format: ADME, organism-based; details: in vivo
Mus musculus [3] = test: Central anticholinergic activity against physostigmine-induced lethality in Carworth CF1 mouse assessed as animal death at 30 mg/kg, po treated 5 hrs before 1.6 mg/kg, sc physostigmine treatment and 2 mg/kg, ip atropine methyl nitrate treated 0.5 hrs before induction (reference value: 0%); format: functional
Mus musculus [4] = test: Central anticholinergic activity against physostigmine-induced lethality in Carworth CF1 mouse assessed as animal death at 15 mg/kg, po treated 5 hrs before 1.6 mg/kg, sc physostigmine treatment and 2 mg/kg, ip atropine methyl nitrate treated 0.5 hrs before induction (reference value: 0%); format: functional
Mus musculus [5] = test: Central anticholinergic activity against physostigmine-induced lethality in Carworth CF1 mouse assessed as animal death at 7.5 mg/kg, po treated 5 hrs before 1.6 mg/kg, sc physostigmine treatment and 2 mg/kg, ip atropine methyl nitrate treated 0.5 hrs before induction (reference value: 0%); format: functional
Mus musculus [6] = test: Central anticholinergic activity against physostigmine-induced lethality in Carworth CF1 mouse assessed as animal death at 3.75 mg/kg, po treated 5 hrs before 1.6 mg/kg, sc physostigmine treatment and 2 mg/kg, ip atropine methyl nitrate treated 0.5 hrs before induction (reference value: 0%); format: functional
Saimiri [7] = test: Antipsychotic activity in squirrel monkey assessed as inhibition of conditioned avoidance response measured as maximum number of shocks possible per 30 mins interval at 0.25 mg/kg, po after 0 to 30 mins dosing; format: functional
Saimiri [8] = test: Antipsychotic activity in squirrel monkey assessed as inhibition of conditioned avoidance response measured as maximum number of shocks possible per 30 mins interval at 0.25 mg/kg, po after 30 to 60 mins dosing; format: functional
Saimiri [9] = test: Antipsychotic activity in squirrel monkey assessed as inhibition of conditioned avoidance response measured as maximum number of shocks possible per 30 mins interval at 0.25 mg/kg, po after 60 to 90 mins dosing; format: functional
Saimiri [10] = test: Antipsychotic activity in squirrel monkey assessed as inhibition of conditioned avoidance response measured as maximum number of shocks possible per 30 mins interval at 0.50 mg/kg, po after 90 to 120 mins dosing; format: functional; details: dose 0.5 mg/kg
Saimiri [11] = test: Antipsychotic activity in squirrel monkey assessed as inhibition of conditioned avoidance response measured as maximum number of shocks possible per 30 mins interval at 0.50 mg/kg, po after 120 to 150 mins dosing; format: functional; details: dose 0.5 mg/kg
Saimiri [12] = test: Antipsychotic activity in squirrel monkey assessed as inhibition of conditioned avoidance response measured as maximum number of shocks possible per 30 mins interval at 0.50 mg/kg, po after 150 to 180 mins dosing; format: functional; details: dose 0.5 mg/kg
Saimiri [13] = test: Antipsychotic activity in squirrel monkey assessed as inhibition of conditioned avoidance response measured as maximum number of shocks possible per 30 mins interval at 1 mg/kg, po after 180 to 210 mins dosing; format: functional
Saimiri [14] = test: Antipsychotic activity in squirrel monkey assessed as inhibition of conditioned avoidance response measured as maximum number of shocks possible per 30 mins interval at 1 mg/kg, po after 210 to 240 mins dosing; format: functional
Saimiri [15] = test: Antipsychotic activity in squirrel monkey assessed as inhibition of conditioned avoidance response measured as maximum number of shocks possible per 30 mins interval at 1 mg/kg, po after 240 to 270 mins dosing; format: functional
Saimiri [16] = test: (§1) Antipsychotic activity in squirrel monkey assessed as inhibition of conditioned avoidance response measured as maximum number of shocks possible per 30 mins interval at 1 mg/kg, po 6 days later animal received test compound followed by 0.75 mg/kg, im benztropine 15 mins later measured after 0 to 0.5 hrs of dosing; format: functional
Saimiri [17] = test: as §1, with “after 0.5” for “after 0”, “to 1” for “to 0.5”; format: functional
Saimiri [18] = test: as §1, with “after 1” for “after 0”, “to 1.5” for “to 0.5”; format: functional
Saimiri [19] = test: as §1, with “after 1.5” for “after 0”, “to 2” for “to 0.5”; format: functional
Saimiri [20] = test: as §1, with “after 2” for “after 0”, “to 2.5” for “to 0.5”; format: functional
Saimiri [21] = test: as §1, with “after 2.5” for “after 0”, “to 3” for “to 0.5”; format: functional
Saimiri [22] = test: as §1, with “after 3” for “after 0”, “to 3.5” for “to 0.5”; format: functional
Saimiri [23] = test: as §1, with “after 3.5” for “after 0”, “to 4” for “to 0.5”; format: functional
Saimiri [24] = test: as §1, with “after 4” for “after 0”, “to 4.5” for “to 0.5”; format: functional
Saimiri [25] = test: Antipsychotic activity in squirrel monkey assessed as inhibition of conditioned avoidance response measured as maximum number of shocks possible per 30 mins interval at 1 mg/kg, po 10 days later animal received test compound and again saline measured after 0 to 0.5 hrs of dosing; format: functional
Saimiri [26] = test: Antipsychotic activity in squirrel monkey assessed as inhibition of conditioned avoidance response measured as maximum number of shocks possible per 30 mins interval at 1 mg/kg, po 10 days later animal received test compound and again saline measured after 0.5 to 1 hrs of dosing; format: functional
Saimiri [27] = test: Antipsychotic activity in squirrel monkey assessed as inhibition of conditioned avoidance response measured as maximum number of shocks possible per 30 mins interval at 1 mg/kg, po 10 days later animal received test compound and again saline measured after 1 to 1.5 hrs of dosing; format: functional
Saimiri [28] = test: Antipsychotic activity in squirrel monkey assessed as inhibition of conditioned avoidance response measured as maximum number of shocks possible per 30 mins interval at 1 mg/kg, po 10 days later animal received test compound and again saline measured after 1.5 to 2 hrs of dosing; format: functional
Saimiri [29] = test: Antipsychotic activity in squirrel monkey assessed as inhibition of conditioned avoidance response measured as maximum number of shocks possible per 30 mins interval at 1 mg/kg, po 10 days later animal received test compound and again saline measured after 2 to 2.5 hrs of dosing; format: functional
Saimiri [30] = test: Antipsychotic activity in squirrel monkey assessed as inhibition of conditioned avoidance response measured as maximum number of shocks possible per 30 mins interval at 1 mg/kg, po 10 days later animal received test compound and again saline measured after 2.5 to 3 hrs of dosing; format: functional
Saimiri [31] = test: Antipsychotic activity in squirrel monkey assessed as inhibition of conditioned avoidance response measured as maximum number of shocks possible per 30 mins interval at 1 mg/kg, po 10 days later animal received test compound and again saline measured after 3 to 3.5 hrs of dosing; format: functional
Saimiri [32] = test: Antipsychotic activity in squirrel monkey assessed as inhibition of conditioned avoidance response measured as maximum number of shocks possible per 30 mins interval at 1 mg/kg, po 10 days later animal received test compound and again saline measured after 3.5 to 4 hrs of dosing; format: functional
Saimiri [33] = test: Antipsychotic activity in squirrel monkey assessed as inhibition of conditioned avoidance response measured as maximum number of shocks possible per 30 mins interval at 1 mg/kg, po 10 days later animal received test compound and again saline measured after 4 to 4.5 hrs of dosing; format: functional
Mus musculus [34] = test: Peripheral anticholinergic activity in po dosed Carworth CF1 mouse assessed as dose required to produce pupil dilation to 1.5 micrometer units in 50% mouse after 5 hrs; format: ADME, organism-based; details: in vivo
Saimiri [35] = test: Antipsychotic activity in squirrel monkey assessed as inhibition of conditioned avoidance response at 27 mg/kg, po; format: functional, organism-based; set-up: dose 27 mg/kg
Saimiri [36] = test: Antipsychotic activity in squirrel monkey assessed as inhibition of conditioned avoidance response at 9 mg/kg, po; format: functional, organism-based; set-up: dose 9 mg/kg
Saimiri [37] = test: Antipsychotic activity in squirrel monkey assessed as inhibition of conditioned avoidance response measured as maximum number of shocks possible per 30 mins interval at 1 mg/kg, po after 0 to 30 mins dosing; format: functional
Saimiri [38] = test: Antipsychotic activity in squirrel monkey assessed as inhibition of conditioned avoidance response measured as maximum number of shocks possible per 30 mins interval at 1 mg/kg, po after 30 to 60 mins dosing; format: functional
Saimiri [39] = test: Antipsychotic activity in squirrel monkey assessed as inhibition of conditioned avoidance response measured as maximum number of shocks possible per 30 mins interval at 1 mg/kg, po after 60 to 90 mins dosing; format: functional
Saimiri [40] = test: Antipsychotic activity in squirrel monkey assessed as inhibition of conditioned avoidance response measured as maximum number of shocks possible per 30 mins interval at 3 mg/kg, po after 90 to 120 mins dosing; format: functional
Saimiri [41] = test: Antipsychotic activity in squirrel monkey assessed as inhibition of conditioned avoidance response measured as maximum number of shocks possible per 30 mins interval at 3 mg/kg, po after 120 to 150 mins dosing; format: functional
Saimiri [42] = test: Antipsychotic activity in squirrel monkey assessed as inhibition of conditioned avoidance response measured as maximum number of shocks possible per 30 mins interval at 3 mg/kg, po after 150 to 180 mins dosing; format: functional

CN1CCC(=C2c3ccccc3C=Cc3ccccc32)CC1 [CYPROHEPTADINE]
Activity (Mus musculus [1]): 0%
ED (Mus musculus [2]): 6 mg/kg

FC(F)(F)Sc1ccc2c(c1)C(=C1CCN(CC3CC3)CC1)c1ccccc1C=C2 (single isomer, unassigned; atropisomer)
Activity (Mus musculus [3]): 85% and 63%
Activity (Mus musculus [4]): 100% and 85%
Activity (Mus musculus [5]): 95% and 80%
Activity (Mus musculus [6]): 100%
%max (Saimiri [7]): 0.34%
%max (Saimiri [8]): 0.34%
%max (Saimiri [9]): 0.68%
%max (Saimiri [10]): 17.4%
%max (Saimiri [11]): 39.4%
%max (Saimiri [12]): 97.4%
%max (Saimiri [13]): 100%
%max (Saimiri [14]): 100%
%max (Saimiri [15]): 100%
%max (Saimiri [16]): 2%
%max (Saimiri [17]): 7.6%
%max (Saimiri [18]): 5.7%
%max (Saimiri [19]): 5.3%
%max (Saimiri [20]): 8.7%
%max (Saimiri [21]): 4.3%
%max (Saimiri [22]): 4%
%max (Saimiri [23]): 3%
%max (Saimiri [24]): 3.7%
%max (Saimiri [25]): 0%
%max (Saimiri [26]): 1.7%
%max (Saimiri [27]): 42%
%max (Saimiri [28]): 52.7%
%max (Saimiri [29]): 69.3%
%max (Saimiri [30]): 42.7%
%max (Saimiri [31]): 70.3%
%max (Saimiri [32]): 73%
%max (Saimiri [33]): 64.3%
ED (Mus musculus [2]): > 120 mg/kg
ED (Mus musculus [34]): > 120 mg/kg

FC(F)(F)Sc1ccc2c(c1)C(=C1CCN(CC3CC3)CC1)c1ccccc1C=C2
inhibition (Saimiri [35]): inactive

CN1CCC(=C2c3ccccc3C=Cc3ccc(SC(F)(F)F)cc32)CC1
inhibition (Saimiri [36]): inactive
%max (Saimiri [37]): 0%
%max (Saimiri [38]): 0.66%
%max (Saimiri [39]): 8%
%max (Saimiri [40]): 77.4%
%max (Saimiri [41]): 100%
%max (Saimiri [42]): 100%
